Where a name gives a salt, the structure may show the parent alone.
Legend:
MV4;11 cells = experiment: MV4;11 in vitro inhibition of proliferation assay (CellTiter-Glo, 72 hours); type: cell-based; conditions: Homo sapiens, MV4-11, 72 h, IC50 class, read-out: Inhibitory activity of cell proliferation MV4;11
Text: Biological Test Example 2: MV4;11 In Vitro Inhibition of Proliferation Assay
The MV4;11 cell lines were purchased from the cell bank of the Chinese Academy of Sciences, IMDM medium (Gibco, catalog number 12440), fetal bovine serum (Gibco, catalog number 10099141C), penicillin-streptomycin antibiotics (Gibco, catalog number 15140122), DMSO (Sigma, catalog number D2650), Celltiter-Glo kit (CTG) (Promega, catalog number G7573), 384-well clear flat-bottom black cell culture plate (Corning, catalog number 3764), D300e digital dispenser (Tecan, catalog number D300e), SpectraMax i3x microplate reader (MOLECULAR DEVICES, catalog number i3x)
MV4;11 cell was cultivated in IMDM, 10% fetal bovine serum, 1% penicillin-streptomycin antibiotics, and cell density was kept less than 1.0*10E6 cells per ml to ensure that it was always in logarithmic growth phase. Cell viability was greater than 95%.
The compounds to be tested was diluted by 3 times from 10 uM with DMSO to 9 concentrations. 60 nl diluted compound was added to the cell culture plate and three duplicates were set up.
The prepared MV4;11 cell suspension was added to the 384-well plate, and 20 microliters of cell suspension was added per well, i.e., each well contained 2000 MV4;11 cells, of which the final concentration of DMSO was 0.3%. The cell culture plate was placed in 37° C. and incubated in a 5% carbon dioxide incubator for 72 hours.
20 μL of Promega CellTiter-Glo reagent was added to per well, and the plate was incubated at room temperature for 10 minutes when the luminescence signals were stable. SpectraMax i3x microplate reader was used to read signals.
The original data was converted into inhibition rate, and the IC50 value (half inhibition concentration) of the compound was determined by fitting the nonlinear four-parameter curve.

FLT3 = biological target: T1, FLT3 (Homo sapiens, UniProt P36888); experiment: FLT3 kinase in vitro inhibitory activity experiment (Caliper mobility shift, conversion rate); type: biochemical; conditions: IC50 class, read-out: Enzyme activity FLT3
T1 construct: purchased Carna 08-145
T1 sequence (P36888 27-993): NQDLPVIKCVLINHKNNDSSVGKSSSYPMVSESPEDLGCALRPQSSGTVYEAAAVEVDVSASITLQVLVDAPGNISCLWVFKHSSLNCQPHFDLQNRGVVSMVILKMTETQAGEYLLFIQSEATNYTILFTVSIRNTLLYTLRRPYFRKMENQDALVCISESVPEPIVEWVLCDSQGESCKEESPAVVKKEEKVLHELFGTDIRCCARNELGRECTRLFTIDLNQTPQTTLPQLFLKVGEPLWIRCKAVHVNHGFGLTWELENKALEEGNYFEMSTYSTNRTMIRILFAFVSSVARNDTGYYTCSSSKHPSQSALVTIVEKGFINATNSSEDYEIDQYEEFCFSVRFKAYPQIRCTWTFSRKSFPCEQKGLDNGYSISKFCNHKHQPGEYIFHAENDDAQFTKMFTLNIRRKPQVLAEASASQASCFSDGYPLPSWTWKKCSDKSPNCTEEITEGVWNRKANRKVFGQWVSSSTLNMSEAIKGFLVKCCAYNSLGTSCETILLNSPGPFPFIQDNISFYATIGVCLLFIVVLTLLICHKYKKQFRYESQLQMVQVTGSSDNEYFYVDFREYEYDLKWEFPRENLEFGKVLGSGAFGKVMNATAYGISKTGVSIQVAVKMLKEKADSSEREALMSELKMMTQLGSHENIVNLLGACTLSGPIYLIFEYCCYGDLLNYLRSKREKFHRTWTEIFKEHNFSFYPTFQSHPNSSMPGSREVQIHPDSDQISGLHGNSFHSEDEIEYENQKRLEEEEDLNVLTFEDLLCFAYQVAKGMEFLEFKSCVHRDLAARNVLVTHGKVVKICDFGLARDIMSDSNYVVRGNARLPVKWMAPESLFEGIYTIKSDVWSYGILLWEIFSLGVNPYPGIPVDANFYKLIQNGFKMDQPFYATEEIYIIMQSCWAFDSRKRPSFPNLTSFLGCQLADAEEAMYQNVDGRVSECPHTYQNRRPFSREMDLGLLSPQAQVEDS
Protocol: Biological Test Example 1: FLT3 Kinase In Vitro Inhibitory Activity Experiment
Centrifuge (manufacturer: Eppendorf, model: 5430), microplate reader (manufacturer: Perkin Elmer, model: Caliper EZ Reader II), Echo 550 (manufacturer: Labcyte, model: Echo 550)
1. Kinase Reaction Process
• (1) 1×Kinase buffer was prepared. • (2) Preparation of the serial compound dilutions: the initial stock (the concentration of the tested compound was 1 μM) was diluted by 3-fold into 10 concentrations, and was single-well detected. The compounds were series diluted to solutions of 10 different concentration (100-folds final concentration) in 384-well plates. 250 nl of solution was transferred to each well of 384-well plate by Echo550. 100% DMSO (250 nl) was added to negative control wells and positive control wells respectively. • (3) Kinase solution (2.5 times final concentration) was prepared with 1×Kinase buffer. • (4) 10 μL of kinase solution (2.5 times final concentration) was added to compound wells and positive control wells respectively: 1×Kinase buffer (10 μL) was added to the negative control wells. • (5) The solution was centrifuged at 1000 rpm for 30 seconds, shaked and mixed, and incubated at room temperature for 10 minutes. • (6) The mixed solution of ATP and Kinase substrate 2 (25/15 times final concentration) was prepared with 1×Kinase buffer. • (7) 15 μL of mixed solution ATP and Kinase substrate 2 (25/15 times final concentration) was added to initiated the reaction. • (8) 384 well plate was centrifuged at 1000 rpm for 30 seconds, shaked and mixed, then incubated at room temperature for 30 minutes. • (9) Stop solution (30 μL) was added to stop kinase reaction, and the solution was centrifuged at 1000 rpm for 30 seconds, shaked and mixed. • (10) The conversion rate was read with Caliper EZ Reader II. 2. Data Analysis Formula for Calculation
Wherein: Conversion %_sample is the reading of the sample conversion; Conversion %_min: negative control well.

| Compound | IC50 (MV4;11 cells) [nM] | IC50 (FLT3) [nM] |
| --- | --- | --- |
| CCc1nc2c(N)ncc(-c3cnn(-c4ccc(C5CCN(C)CC5)cc4)c3)c2nc1N[C@@H]1CC[C@H](O)C1 [Compound 290] | ≤ 10 | ≤ 10 |
| CCc1nc2c(N)ncc(-c3cnn(C4CCN(c5ccnc(C)n5)CC4)c3)c2nc1N[C@@H]1CC[C@H](O)C1 [Compound 174] | ≤ 10 | ≤ 10 |
| CCc1nc2c(N)ncc(-c3cnn(C4CCN(C5CCNCC5)CC4)c3)c2nc1NC1CCOCC1 [Compound 160] | 10 to 100 | ≤ 10 |
| CCc1nc2c(N)ncc(-c3ccc(N4CCC(N5CCN(CC)CC5)CC4)c(OC)c3)c2nc1N[C@H]1CCOC1 [Compound 325] | 10 to 100 | ≤ 10 |
| CCc1nc2c(N)ncc(-c3ccc(N4CCC(N5CCN(C)CC5)CC4)c(OC)c3)c2nc1N[C@H]1CC[C@H](O)CC1 [Compound 65] | 10 to 100 | ≤ 10 |
| CCc1nc2c(N)ncc(-c3ccc(N4CCC(N5CCN(CCC#N)CC5)CC4)c(OC)c3)c2nc1NC1CCOCC1 [Compound 326] | 10 to 100 | 10 to 100 |
| CCc1nc2c(N)ncc(-c3cnn(-c4nccc(C(C)(C)O)n4)c3)c2nc1N[C@@H]1CC[C@H](O)C1 [Compound 352] | 10 to 100 | ≤ 10 |
| CCc1nc2c(N)ncc(-c3cnn(C4COC4)c3)c2nc1N[C@@H]1CC[C@H](O)C1 [Compound 199] | ≤ 10 | ≤ 10 |
| CCc1nc2c(N)ncc(-c3ccc(N4CCC(N5CCN(C)CC5)CC4)c(C(F)(F)F)c3)c2nc1NC1CCOCC1 [Compound 16] | 10 to 100 | ≤ 10 |
| CCc1nc2c(N)ncc(-c3cnn(C4CCN(CC(C)C)CC4)c3)c2nc1N[C@@H]1CC[C@H](O)C1 [Compound 182] | ≤ 10 | ≤ 10 |
| CCc1nc2c(N)ncc(-c3ccc(N4CCC(N5CCN(C)CC5)CC4)c(C#N)c3)c2nc1NC1CCOCC1 [Compound 15] | 10 to 100 | ≤ 10 |
| CCc1nc2c(N)ncc(-c3ccc(N4CCC(N5CCN(C)CC5)CC4)c(OC)c3)c2nc1N[C@@H]1CCC[C@H](O)C1 [Compound 257] | ≤ 10 | ≤ 10 |
| CCc1nc2c(N)ncc(-c3cnn(C4C[C@H]5CC[C@@H](C4)N5C)c3)c2nc1N[C@@H]1CC[C@H](O)C1 (single isomer, unassigned) [Compound 164] | 10 to 100 | ≤ 10 |
| CCc1nc2c(N)ncc(-c3ccc(N4CCC(N5CCN(C)CC5)CC4)c(OC)c3)c2nc1NC(C)C [Compound 77] | 10 to 100 | ≤ 10 |
| CCc1nc2c(N)ncc(-c3ccc(N4CCC(N5CCN(C)CC5)CC4)c(OC)c3)c2nc1NC1CCOCC1 [Compound 8, 3-ethyl-8-(3-methoxy-4-(4-(4-methylpiperazin-1-yl)piperidin-1-yl)phenyl)-N2-(tetrahydropyran-4-yl)pyrido[3,4-b]pyrazine-2,5-diamine trihydrochloride] | 10 to 100 | ≤ 10 |
| CCc1nc2c(N)ncc(-c3cnn(-c4ccnc(C)n4)c3)c2nc1NC1CCOCC1 [Compound 280] | ≤ 10 | ≤ 10 |
| CCc1nc2c(N)ncc(-c3ccc(N4C[C@@H](C)O[C@@H](C)C4)c(OC)c3)c2nc1N[C@@H]1CC[C@H](O)C1 [Compound 265] | 10 to 100 | ≤ 10 |

| Compound | IC50 (MV4;11 cells) [nM] | IC50 (FLT3) [nM] |
| --- | --- | --- |
| COc1cc(-c2cnc(N)c3nc(C)c(NC4CCOCC4)nc23)ccc1N1CCC(N2CCN(C)CC2)CC1 [Compound 26] | 100 to 500 | 10 to 100 |
| CCc1nc2c(N)ncc(-c3cnn(C4CCN(C5CC5)CC4)c3)c2nc1N[C@@H]1CC[C@H](O)C1 [Compound 211] | ≤ 10 | ≤ 10 |
| CCc1nc2c(N)ncc(-c3cnn(-c4ccc(C)cc4)c3)c2nc1N[C@@H]1CC[C@H](O)C1 [Compound 303] | 10 to 100 | ≤ 10 |
| CCc1nc2c(N)ncc(-c3ccc(N4CCC5(CC4)CN(C)C5)c(OC)c3)c2nc1NC1CCOCC1 [Compound 33] | 10 to 100 | ≤ 10 |
| CCc1nc2c(N)ncc(-c3cnn(-c4ccnc(C)c4)c3)c2nc1N[C@@H]1CC[C@H](O)C1 [Compound 272] | ≤ 10 | ≤ 10 |
| [2H]C([2H])([2H])N1CCC(n2cc(-c3cnc(N)c4nc(CC)c(N[C@@H]5CC[C@H](O)C5)nc34)cn2)CC1 [Compound 220] | ≤ 10 | ≤ 10 |
| CCc1nc2c(N)ncc(-c3cnn(-c4ccc(C#N)nn4)c3)c2nc1N[C@@H]1CC[C@H](O)C1 [Compound 337] | 10 to 100 | ≤ 10 |
| CCc1nc2c(N)ncc(-c3cnn(-c4ccc(CNC)cc4)c3)c2nc1NC1CCOCC1 [Compound 350] | ≤ 10 | ≤ 10 |
| CCc1nc2c(N)ncc(-c3ccc(N4CCC(N5CCN(CC)CC5)CC4)c(OC)c3)c2nc1N[C@@H]1CC[C@H](O)C1 [Compound 253] | ≤ 10 | ≤ 10 |
| CCc1nc2c(N)ncc(-c3cnn(C4CCN(c5cccnn5)CC4)c3)c2nc1N[C@@H]1CC[C@H](O)C1 [Compound 175] | ≤ 10 | ≤ 10 |
| CCc1nc2c(N)ncc(-c3cnn(C4CCN(C5COC5)CC4)c3)c2nc1NC1CCOCC1 [Compound 238] | 10 to 100 | ≤ 10 |
| CCc1nc2c(N)ncc(-c3cnn(-c4ccc(C(C)(C)O)cn4)c3)c2nc1N[C@@H]1CC[C@H](O)C1 [Compound 276] | ≤ 10 | ≤ 10 |
| CCc1nc2c(N)ncc(-c3cnn(-c4ccc(OC(C)C)nc4)c3)c2nc1N[C@@H]1CC[C@H](O)C1 [Compound 275] | 10 to 100 | ≤ 10 |
| CCc1nc2c(N)ncc(-c3ccc(N4CCC(N5CCN(C)CC5)CC4)c(OC)c3)c2nc1N[C@@H]1CC[C@H](O)C1 [Compound 72] | ≤ 10 | ≤ 10 |
| CCc1nc2c(N)ncc(-c3cnn(C4CCN(C5CCN(C6CC6)CC5)CC4)c3)c2nc1NC1CCOCC1 [Compound 243] | ≤ 10 | ≤ 10 |
| CCc1nc2c(N)ncc(-c3cnn(C4CCN(CC(C)(C)O)CC4)c3)c2nc1N[C@@H]1CC[C@H](O)C1 [Compound 181] | ≤ 10 | ≤ 10 |
| CCc1nc2c(N)ncc(-c3ccc(N4CCC(N5CCN(C)CC5)CC4)c(OC)c3)c2nc1NC1CCOC1 (centres unmarked) [Compound 79] | 10 to 100 | ≤ 10 |

Reference: patent publication US12673947B2 (Cytosinlab Therapeutics Co., Ltd., priority 2020, dated 2026)
